Measurements taken from US10807986B2, “Fused pyrimidine compound or salt thereof” (TAIHO PHARMACEUTICAL CO., LTD., priority 2016, dated 2020).

Test: Evaluation of stability in liver microsome
Details: mouse liver microsome 0.25 mg/mL, test compound 1 μM, 37° C., 30 minutes
Description: Solutions of the test compounds in DMSO/acetonitrile (the final concentration of each test compound was 1 μM, the final concentration of DMSO was 0.01%, and the final concentration of acetonitrile was 1%) were individually added to a liver microsome mixture solution (mouse liver microsome with a final concentration of 0.25 mg/mL, a potassium phosphate buffer with a final concentration of 100 mM, and magnesium chloride with a final concentration of 3 mM), and each mixture was pre-incubated at 37° C. for 5 minutes. […] After incubation at 37° C. for 30 minutes, a double amount of ethanol was added thereto to terminate the reaction, thereby obtaining post-reaction samples. A double amount of ethanol was added to each of the remaining mixture solutions, and a NADPH-generating system was further added thereto, thereby obtaining pre-reaction samples. The pre-reaction samples and post-reaction samples were centrifuged at 2000×g, and their supernatant was filtered through a glass filter. Each filtrate was then introduced into LC-MS/MS, and MS/MS peaks of the test compounds were detected. From the ratio of the post-reaction MS/MS peak to the pre-reaction MS/MS peak of the test compounds, the percentage of the remaining test compounds (remaining %) was calculated.

SMILES	Remaining (%)
COCc1ccc(NC(=O)c2cn(C3(C(F)F)CC3)c3ncnc(N)c23)cc1 [Example 46, 4-amino-7-(1-(difluoromethyl)cyclopropyl)-N-(4-(methoxymethyl)phenyl)-7H-pyrrolo[2,3-d]pyrimidine-5-carboxamide]	65%
COCc1ccc(NC(=O)c2c(C3=CCOCC3)n(C3(C)CC3)c3ncnc(N)c23)cc1 [Example 203, 4-amino-6-(3,6-dihydro-2H-pyran-4-yl)-N-(4-(methoxymethyl)phenyl)-7-(1-methylcyclopropyl)-7H-pyrrolo[2,3-d]pyrimidine-5-carboxamide]	68%
COCc1ccc(NC(=O)c2c(C#Cc3c[nH]c4ccccc34)n(C3(C)CC3)c3ncnc(N)c23)cc1 [Example 121, 6-((1H-indol-3-yl)ethynyl)-4-amino-N-(4-(methoxymethyl)phenyl)-7-(1-methylcyclopropyl)-7H-pyrrolo[2,3-d]pyrimidine-5-carboxamide]	74%
COCc1ccc(NC(=O)c2c(F)n(C3(C)CC3)c3ncnc(N)c23)cc1 [Example 69, 4-amino-6-fluoro-N-(4-(methoxymethyl)phenyl)-7-(1-methylcyclopropyl)-7H-pyrrolo[2,3-d]pyrimidine-5-carboxamide]	69%
COCc1ccc(NC(=O)c2c(C#Cc3cncc(F)c3)n(C3(C)CC3)c3ncnc(N)c23)cc1 [Example 175, 4-amino-6-((5-fluoropyridin-3-yl)ethynyl)-N-(4-(methoxymethyl)phenyl)-7-(1-methylcyclopropyl)-7H-pyrrolo[2,3-d]pyrimidine-5-carboxamide]	66%
COCc1ccc(NC(=O)c2cn(C3(C)CC3)c3ncnc(N)c23)cc1 [Example 36, 4-amino-N-(4-(methoxymethyl)phenyl)-7-(1-methylcyclopropyl)-7H-pyrrolo[2,3-d]pyrimidine-5-carboxamide]	73%
COCc1ccc(NC(=O)c2c(-c3cccnc3)n(C3(C)CC3)c3ncnc(N)c23)cc1 [Example 61, 4-amino-N-(4-(methoxymethyl)phenyl)-7-(1-methylcyclopropyl)-6-(pyridin-3-yl)-7H-pyrrolo[2,3-d]pyrimidine-5-carboxamide]	81%
COCc1ccc(NC(=O)c2cn(C(C)(C)C)c3ncnc(N)c23)cc1 [Example 2, 4-amino-7-(tert-butyl)-N-(4-(methoxymethyl)phenyl)-7H-pyrrolo[2,3-d]pyrimidine-5-carboxamide]	64%
COCc1ccc(NC(=O)c2c(C#Cc3ccc[nH]3)n(C3(C)CC3)c3ncnc(N)c23)cc1 [Example 161, 6-((1H-pyrrol-2-yl)ethynyl)-4-amino-N-(4-(methoxymethyl)phenyl)-7-(1-methylcyclopropyl)-7H-pyrrolo[2,3-d]pyrimidine-5-carboxamide]	68%
COCc1ccc(NC(=O)c2c(C(C)O)n(C3(C)CC3)c3ncnc(N)c23)cc1 (stereo not drawn) [Example 204, 4-amino-6-(1-hydroxyethyl)-N-(4-(methoxymethyl)phenyl)-7-(1-methylcyclopropyl)-7H-pyrrolo[2,3-d]pyrimidine-5-carboxamide]	83%
COCc1ccc(NC(=O)c2cn(C(C)(C)C(F)F)c3ncnc(N)c23)cc1 [Example 50, 4-amino-7-(1,1-difluoro-2-methylpropan-2-yl)-N-(4-(methoxymethyl)phenyl)-7H-pyrrolo[2,3-d]pyrimidine-5-carboxamide]	53%
COCc1ccc(NC(=O)c2c(/C=C/CO)n(C3(C)CC3)c3ncnc(N)c23)cc1 [Example 109, (E)-4-amino-6-(3-hydroxyprop-1-en-1-yl)-N-(4-(methoxymethyl)phenyl)-7-(1-methylcyclopropyl)-7H-pyrrolo[2,3-d]pyrimidine-5-carboxamide]	68%
COCc1ccc(NC(=O)c2c(C#Cc3cnc4ccoc4c3)n(C3(C)CC3)c3ncnc(N)c23)cc1 [Example 159, 4-amino-6-(furo[3,2-b]pyridin-6-ylethynyl)-N-(4-(methoxymethyl)phenyl)-7-(1-methylcyclopropyl)-7H-pyrrolo[2,3-d]pyrimidine-5-carboxamide]	78%
COCc1ccc(NC(=O)c2c(-c3cncnc3)n(C3(C)CC3)c3ncnc(N)c23)cc1 [Example 194, 4-amino-N-(4-(methoxymethyl)phenyl)-7-(1-methylcyclopropyl)-6-(pyrimidin-5-yl)-7H-pyrrolo[2,3-d]pyrimidine-5-carboxamide]	67%
CC(C)(C)n1cc(C(=O)Nc2ccc(-c3cc[nH]n3)cc2)c2c(N)ncnc21 [Example 80, N-(4-(1H-pyrazol-3-yl)phenyl)-4-amino-7-(tert-butyl)-7H-pyrrolo[2,3-d]pyrimidine-5-carboxamide]	50%
COCc1ccc(NC(=O)c2c(C#Cc3ccc(OC)cc3)n(C3(C)CC3)c3ncnc(N)c23)cc1 [Example 165, 4-amino-N-(4-(methoxymethyl)phenyl)-6-((4-methoxypheny)ethynyl)-7-(1-methylcyclopropyl)-7H-pyrrolo[2,3-d]pyrimidine-5-carboxamide]	90%
COCc1ccc(NC(=O)c2c(-c3ccc(N4CCN(C)CC4)cc3)n(C3(C)CC3)c3ncnc(N)c23)cc1 [Example 171, 4-amino-N-(4-(methoxymethyl)phenyl)-7-(1-methylcyclopropyl)-6-(4-(4-methylpiperazin-1-yl)phenyl)-7H-pyrrolo[2,3-d]pyrimidine-5-carboxamide]	77%
COCc1ccc(NC(=O)c2c(C#CCCN3CCOCC3)n(C3(C)CC3)c3ncnc(N)c23)cc1 [Example 187, 4-amino-N-(4-(methoxymethyl)phenyl)-7-(1-methylcyclopropyl)-6-(4-morpholinobut-1-yn-1-yl)-7H-pyrrolo [2,3-d]pyrimidine-5-carboxamide]	68%
COCc1ccc(NC(=O)c2c(C#Cc3c(C)noc3C)n(C3(C)CC3)c3ncnc(N)c23)cc1 [Example 184, 4-amino-6-((3,5-dimethylisoxazol-4-yl)ethynyl)-N-(4-(methoxymethyl)phenyl)-7-(1-methylcyclopropyl)-7H-pyrrolo[2,3-d]pyrimidine-5-carboxamide]	58%
COCc1ccc(NC(=O)c2c(C#CC(C)(C)N)n(C3(C)CC3)c3ncnc(N)c23)cc1 [Example 134, 4-amino-6-(3-amino-3-methylbut-1-yn-1-yl)-N-(4-(methoxymethyl)phenyl)-7-(1-methylcyclopropyl)-7H-pyrrolo[2,3-d]pyrimidine-5-carboxamide]	79%
COCc1ccc(NC(=O)c2c(C#Cc3cncn3C)n(C3(C)CC3)c3ncnc(N)c23)cc1 [Example 93, 4-amino-N-(4-(methoxymethyl)phenyl)-6-((1-methyl-1H-imidazol-5-yl)ethynyl)-7-(1-methylcyclopropyl)-7H-pyrrolo[2,3-d]pyrimidine-5-carboxamide]	53%
COCc1ccc(NC(=O)c2c(OC)n(C3(C)CC3)c3ncnc(N)c23)cc1 [Example 57, 4-amino-6-methoxy-N-[4-(methoxymethyl)phenyl]-7-(1-methylcyclopropyl)-7H-pyrrolo[2,3-d]pyrimidine-5-carboxamide]	86%
COCc1ccc(NC(=O)c2c(C#CC3(O)CCCC3)n(C3(C)CC3)c3ncnc(N)c23)cc1 [Example 131, 4-amino-6-((1-hydroxycyclopentyl)ethynyl)-N-(4-(methoxymethyl)phenyl)-7-(1-methylcyclopropyl)-7H-pyrrolo[2,3-d]pyrimidine-5-carboxamide]	55%
COCc1ccc(NC(=O)c2c(C#Cc3cnn(C)c3)n(C3(C)CC3)c3ncnc(N)c23)cc1 [Example 90, 4-amino-N-[4-(methoxymethyl)phenyl]-6-((1-methyl-1H-pyrazol-4-yl)ethynyl)-7-(1-methylcyclopropyl)-7H-pyrrolo[2,3-d]pyrimidine-5-carboxamide]	67%
COCc1ccc(NC(=O)c2c(OCC3CCCO3)n(C3(C)CC3)c3ncnc(N)c23)cc1 (stereo not drawn) [Example 135, 4-amino-N-(4-(methoxymethyl)phenyl)-7-(1-methylcyclopropyl)-6-((tetrahydrofuran-2-yl)methoxy)-7H-pyrrolo[2,3-d]pyrimidine-5-carboxamide]	67%
COCc1ccc(NC(=O)c2c(C#CCC3CCOCC3)n(C3(C)CC3)c3ncnc(N)c23)cc1 [Example 152, 4-amino-N-(4-(methoxymethyl)phenyl)-7-(1-methylcyclopropyl)-6-(3-(tetrahydro-2H-pyran-4-yl)prop-1-yn-1-yl)-7H-pyrrolo[2,3-d]pyrimidine-5-carboxamide]	57%
COCc1ccc(NC(=O)c2c(C#CCC3(O)CCC3)n(C3(C)CC3)c3ncnc(N)c23)cc1 [Example 103, 4-amino-6-(3-(1-hydroxycyclobutyl)prop-1-yn-1-yl)-N-(4-(methoxymethyl)phenyl)-7-(1-methylcyclopropyl)-7H-pyrrolo[2,3-d]pyrimidine-5-carboxamide]	60%
COCc1ccc(NC(=O)c2c(C#Cc3ccn[nH]3)n(C3(C)CC3)c3ncnc(N)c23)cc1 [Example 129, 6-((1H-pyrazol-5-yl)ethynyl)-4-amino-N-(4-(methoxymethyl)phenyl)-7-(1-methylcyclopropyl)-7H-pyrrolo[2,3-d]pyrimidine-5-carboxamide]	54%
COCc1ccc(NC(=O)c2cn(C3(CF)CC3)c3ncnc(N)c23)cc1 [Example 45, 4-amino-7-(1-(fluoromethyl)cyclopropyl)-N-(4-(methoxymethyl)phenyl)-7H-pyrrolo[2,3-d]pyrimidine-5-carboxamide]	66%
COCc1ccc(NC(=O)c2c(OC[C@@H](C)OC)n(C3(C)CC3)c3ncnc(N)c23)cc1 [Example 96, (R)-4-amino-N-(4-(methoxymethyl)phenyl)-6-(2-methoxypropoxy)-7-(1-methylcyclopropyl)-7H-pyrrolo[2,3-d]pyrimidine-5-carboxamide]	71%
